Source: ChEMBL document CHEMBL5058643, “Data for DCP probe BI-2081” (2022)

Assays:
[1] = target: Gamma-aminobutyric acid receptor subunit alpha-1 (Rattus norvegicus) (UniProt P62813); experiment: GABAA MUSCIMOL CENT Eurofins SafetyScreen44 (BI); details: Compound concentration 10.0 uM
[2] = target: D(3) dopamine receptor (Homo sapiens) (UniProt P35462); experiment: D3/HU Eurofins SafetyScreen44 (BI); details: Compound concentration 10.0 uM
[3] = target: Beta-2 adrenergic receptor (Homo sapiens) (UniProt P07550); experiment: BETA2/HU Eurofins SafetyScreen44 (BI); details: Compound concentration 10.0 uM
Sequence of Beta-2 adrenergic receptor (Homo sapiens) (P07550 whole entry, looked up): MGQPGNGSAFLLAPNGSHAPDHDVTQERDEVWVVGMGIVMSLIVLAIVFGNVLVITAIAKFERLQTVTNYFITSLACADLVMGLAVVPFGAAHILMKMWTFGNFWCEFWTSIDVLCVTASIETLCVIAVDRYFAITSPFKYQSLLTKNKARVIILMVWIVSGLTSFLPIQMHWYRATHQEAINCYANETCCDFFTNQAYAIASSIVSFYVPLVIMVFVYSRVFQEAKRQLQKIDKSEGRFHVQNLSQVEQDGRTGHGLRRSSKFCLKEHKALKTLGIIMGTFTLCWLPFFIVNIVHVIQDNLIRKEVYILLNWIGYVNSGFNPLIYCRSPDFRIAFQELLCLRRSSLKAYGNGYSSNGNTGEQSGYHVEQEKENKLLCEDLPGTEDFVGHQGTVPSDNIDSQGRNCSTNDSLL

[4] = target: Protein kinase C alpha type (Mus musculus) (UniProt P20444); experiment: PHORBOLE/M Eurofins SafetyScreen44 (BI); details: Compound concentration 10.0 uM
[5] = target: Gamma-aminobutyric acid receptor subunit alpha-1 (Rattus norvegicus) (UniProt P62813); experiment: GABAACENTR Eurofins SafetyScreen44 (BI); details: Compound concentration 10.0 uM
[6] = target: Sigma non-opioid intracellular receptor 1 (Homo sapiens) (UniProt Q99720); experiment: SIGMA1/HU Eurofins SafetyScreen44 (BI); details: Compound concentration 10.0 uM
[7] = target: Mu-type opioid receptor (Homo sapiens) (UniProt P35372); experiment: MU/HU Eurofins SafetyScreen44 (BI); details: Compound concentration 10.0 uM
[8] = target: ATP-sensitive inward rectifier potassium channel 1 isoform X1 (Mesocricetus auratus) (UniProt A0A1U8CU73); experiment: K+/KATP/HA Eurofins SafetyScreen44 (BI); details: Cricetinae; Compound concentration 10.0 uM
Sequence of ATP-sensitive inward rectifier potassium channel 1 isoform X1 (Mesocricetus auratus) (A0A1U8CU73 as listed by the source): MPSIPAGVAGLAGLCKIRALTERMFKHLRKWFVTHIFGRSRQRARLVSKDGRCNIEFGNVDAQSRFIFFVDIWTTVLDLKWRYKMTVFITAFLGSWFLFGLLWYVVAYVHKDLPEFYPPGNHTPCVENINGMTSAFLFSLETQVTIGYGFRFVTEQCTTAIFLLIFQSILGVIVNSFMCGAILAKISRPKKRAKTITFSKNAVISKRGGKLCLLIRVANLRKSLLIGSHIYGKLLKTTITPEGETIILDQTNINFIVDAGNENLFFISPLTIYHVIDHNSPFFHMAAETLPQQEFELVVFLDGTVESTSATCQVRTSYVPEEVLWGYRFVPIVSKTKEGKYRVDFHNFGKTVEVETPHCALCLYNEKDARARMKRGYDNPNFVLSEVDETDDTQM

[9] = target: Androgen receptor (Homo sapiens) (UniProt P10275); experiment: ANDROGEN/H Eurofins SafetyScreen44 (BI); details: Compound concentration 10.0 uM
[10] = target: 5-hydroxytryptamine receptor 2B (Homo sapiens) (UniProt P41595); experiment: 5HT2B/H AG Eurofins SafetyScreen44 (BI); details: filed as agonist, Compound concentration 10.0 uM
Sequence of 5-hydroxytryptamine receptor 2B (Homo sapiens) (P41595 whole entry): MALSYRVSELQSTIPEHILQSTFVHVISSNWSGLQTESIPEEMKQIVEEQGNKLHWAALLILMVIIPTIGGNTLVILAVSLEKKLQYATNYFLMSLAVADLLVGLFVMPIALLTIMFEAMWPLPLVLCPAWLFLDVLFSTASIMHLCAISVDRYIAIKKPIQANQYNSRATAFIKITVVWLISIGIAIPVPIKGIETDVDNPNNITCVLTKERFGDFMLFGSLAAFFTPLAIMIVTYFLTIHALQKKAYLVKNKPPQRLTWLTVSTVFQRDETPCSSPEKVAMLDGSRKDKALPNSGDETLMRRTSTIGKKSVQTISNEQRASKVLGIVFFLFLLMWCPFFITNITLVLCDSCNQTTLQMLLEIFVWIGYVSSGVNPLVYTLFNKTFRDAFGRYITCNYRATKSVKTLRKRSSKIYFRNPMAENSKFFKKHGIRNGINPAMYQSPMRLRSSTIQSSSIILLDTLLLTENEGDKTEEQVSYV

[11] = target: Vasopressin V1a receptor (Homo sapiens) (UniProt P37288); experiment: V1A/HUM Eurofins SafetyScreen44 (BI); details: Compound concentration 10.0 uM
[12] = target: T1, Muscarinic acetylcholine receptor M2 (Homo sapiens) (UniProt P08172); experiment: M2/H Eurofins SafetyScreen44 (BI); details: filed as antagonist, Compound concentration 10.0 uM
T1 sequence (whole entry): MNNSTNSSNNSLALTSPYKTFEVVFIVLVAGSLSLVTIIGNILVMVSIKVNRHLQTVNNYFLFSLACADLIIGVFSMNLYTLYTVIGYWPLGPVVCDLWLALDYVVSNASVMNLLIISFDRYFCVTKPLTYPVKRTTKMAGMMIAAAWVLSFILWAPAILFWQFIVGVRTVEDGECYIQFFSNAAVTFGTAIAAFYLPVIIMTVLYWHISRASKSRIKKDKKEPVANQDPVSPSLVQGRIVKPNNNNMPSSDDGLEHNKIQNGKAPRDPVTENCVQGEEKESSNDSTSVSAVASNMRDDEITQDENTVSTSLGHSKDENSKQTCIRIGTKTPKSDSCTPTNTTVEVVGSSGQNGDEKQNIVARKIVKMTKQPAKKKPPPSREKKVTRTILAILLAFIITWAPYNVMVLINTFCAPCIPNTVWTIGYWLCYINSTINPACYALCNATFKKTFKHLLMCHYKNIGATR

[13] = target: D(4) dopamine receptor (Homo sapiens) (UniProt P21917); details: Compound concentration 10.0 uM
Sequence of D(4) dopamine receptor (Homo sapiens) (P21917 whole entry): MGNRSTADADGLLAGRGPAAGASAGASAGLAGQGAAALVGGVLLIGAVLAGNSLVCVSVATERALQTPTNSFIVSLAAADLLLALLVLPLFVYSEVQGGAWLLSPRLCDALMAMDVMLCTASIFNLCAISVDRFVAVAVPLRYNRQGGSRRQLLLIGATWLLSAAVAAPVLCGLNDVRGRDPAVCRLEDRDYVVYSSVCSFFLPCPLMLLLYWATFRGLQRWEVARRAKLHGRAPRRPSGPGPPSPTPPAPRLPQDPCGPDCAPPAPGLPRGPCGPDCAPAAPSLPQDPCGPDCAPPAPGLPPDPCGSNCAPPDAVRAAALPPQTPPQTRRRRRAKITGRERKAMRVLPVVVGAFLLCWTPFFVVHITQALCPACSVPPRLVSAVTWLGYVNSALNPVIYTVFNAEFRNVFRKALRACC

[14] = target: Sodium-dependent noradrenaline transporter (Homo sapiens) (UniProt P23975); experiment: NEUP/H Eurofins SafetyScreen44 (BI); details: Compound concentration 10.0 uM
Sequence of Sodium-dependent noradrenaline transporter (Homo sapiens) (P23975 whole entry): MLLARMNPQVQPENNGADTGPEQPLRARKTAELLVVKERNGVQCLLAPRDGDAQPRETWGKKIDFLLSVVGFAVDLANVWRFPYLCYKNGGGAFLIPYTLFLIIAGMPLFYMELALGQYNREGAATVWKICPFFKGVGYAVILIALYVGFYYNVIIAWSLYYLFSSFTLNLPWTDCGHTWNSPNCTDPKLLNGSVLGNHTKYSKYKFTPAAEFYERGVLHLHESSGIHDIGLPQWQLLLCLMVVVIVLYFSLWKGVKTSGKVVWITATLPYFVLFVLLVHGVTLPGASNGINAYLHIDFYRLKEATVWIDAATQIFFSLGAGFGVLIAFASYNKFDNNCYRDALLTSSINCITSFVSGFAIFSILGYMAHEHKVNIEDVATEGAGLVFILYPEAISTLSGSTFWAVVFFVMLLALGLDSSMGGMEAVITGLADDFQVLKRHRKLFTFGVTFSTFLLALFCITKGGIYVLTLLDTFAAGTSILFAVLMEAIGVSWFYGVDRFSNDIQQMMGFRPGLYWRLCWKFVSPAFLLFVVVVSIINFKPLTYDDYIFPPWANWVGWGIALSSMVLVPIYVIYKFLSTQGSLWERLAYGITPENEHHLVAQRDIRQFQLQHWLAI

[15] = target: T2, 5-hydroxytryptamine receptor 3A (Homo sapiens) (UniProt P46098); experiment: 5HT3/H Eurofins SafetyScreen44 (BI); details: Compound concentration 10.0 uM
T2 sequence (whole entry): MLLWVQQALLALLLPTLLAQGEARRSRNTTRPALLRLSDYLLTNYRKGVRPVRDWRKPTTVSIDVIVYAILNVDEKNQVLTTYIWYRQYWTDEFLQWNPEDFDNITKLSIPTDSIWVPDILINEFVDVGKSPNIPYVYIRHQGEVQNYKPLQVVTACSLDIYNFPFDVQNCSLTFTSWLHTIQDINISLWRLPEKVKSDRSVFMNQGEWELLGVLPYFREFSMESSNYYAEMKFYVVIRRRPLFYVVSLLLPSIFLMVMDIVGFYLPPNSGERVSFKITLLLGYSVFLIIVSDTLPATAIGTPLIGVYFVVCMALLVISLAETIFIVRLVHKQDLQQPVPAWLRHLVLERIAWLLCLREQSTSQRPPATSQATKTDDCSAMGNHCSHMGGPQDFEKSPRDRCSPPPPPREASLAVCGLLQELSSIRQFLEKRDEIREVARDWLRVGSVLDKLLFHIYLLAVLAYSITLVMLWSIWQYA

[16] = target: Muscarinic acetylcholine receptor M4 (Homo sapiens) (UniProt P08173); details: Compound concentration 10.0 uM
Sequence of Muscarinic acetylcholine receptor M4 (Homo sapiens) (P08173 whole entry): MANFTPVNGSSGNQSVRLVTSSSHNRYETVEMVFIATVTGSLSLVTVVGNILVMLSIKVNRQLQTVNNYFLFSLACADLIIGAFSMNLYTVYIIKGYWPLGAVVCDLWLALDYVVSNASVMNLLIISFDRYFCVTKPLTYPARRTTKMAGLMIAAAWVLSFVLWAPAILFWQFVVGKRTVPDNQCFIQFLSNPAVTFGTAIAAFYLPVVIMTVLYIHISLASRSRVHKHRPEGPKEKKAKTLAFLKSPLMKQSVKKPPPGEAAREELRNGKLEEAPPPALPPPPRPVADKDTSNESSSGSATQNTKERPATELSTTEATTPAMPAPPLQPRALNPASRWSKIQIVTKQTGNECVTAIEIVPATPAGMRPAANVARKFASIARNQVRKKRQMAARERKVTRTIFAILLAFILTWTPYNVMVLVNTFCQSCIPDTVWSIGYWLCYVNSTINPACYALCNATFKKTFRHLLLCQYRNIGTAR

[17] = target: D(1A) dopamine receptor (Homo sapiens) (UniProt P21728); experiment: D1/H Eurofins SafetyScreen44 (BI); details: filed as antagonist, Compound concentration 10.0 uM
[18] = target: Cannabinoid receptor 1 (Homo sapiens) (UniProt P21554); experiment: CB1(HU)_AGON Eurofins SafetyScreen44 (BI); details: filed as agonist; Compound concentration 10.0 uM
Sequence of Cannabinoid receptor 1 (Homo sapiens) (P21554 whole entry): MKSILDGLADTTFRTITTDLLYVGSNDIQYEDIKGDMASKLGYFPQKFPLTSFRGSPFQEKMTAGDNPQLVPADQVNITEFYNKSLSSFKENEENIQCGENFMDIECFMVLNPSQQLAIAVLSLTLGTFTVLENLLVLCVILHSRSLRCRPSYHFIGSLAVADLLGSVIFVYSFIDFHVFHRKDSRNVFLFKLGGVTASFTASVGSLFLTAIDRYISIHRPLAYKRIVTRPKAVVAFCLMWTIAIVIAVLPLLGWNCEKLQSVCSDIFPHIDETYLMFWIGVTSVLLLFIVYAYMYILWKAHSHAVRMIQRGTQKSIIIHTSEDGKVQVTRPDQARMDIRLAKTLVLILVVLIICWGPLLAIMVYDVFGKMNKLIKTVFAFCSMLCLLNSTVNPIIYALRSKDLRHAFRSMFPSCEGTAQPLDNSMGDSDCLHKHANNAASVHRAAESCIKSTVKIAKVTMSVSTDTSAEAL

[19] = target: Gamma-aminobutyric acid receptor subunit alpha-1 (Rattus norvegicus) (UniProt P62813); experiment: BZD/CENTR/R Eurofins SafetyScreen44 (BI); details: Compound concentration 10.0 uM
[20] = target: D(2) dopamine receptor (Homo sapiens) (UniProt P14416); experiment: D2SH_AGON Eurofins SafetyScreen44 (BI); details: filed as agonist, Compound concentration 10.0 uM
Sequence of D(2) dopamine receptor (Homo sapiens) (P14416 whole entry): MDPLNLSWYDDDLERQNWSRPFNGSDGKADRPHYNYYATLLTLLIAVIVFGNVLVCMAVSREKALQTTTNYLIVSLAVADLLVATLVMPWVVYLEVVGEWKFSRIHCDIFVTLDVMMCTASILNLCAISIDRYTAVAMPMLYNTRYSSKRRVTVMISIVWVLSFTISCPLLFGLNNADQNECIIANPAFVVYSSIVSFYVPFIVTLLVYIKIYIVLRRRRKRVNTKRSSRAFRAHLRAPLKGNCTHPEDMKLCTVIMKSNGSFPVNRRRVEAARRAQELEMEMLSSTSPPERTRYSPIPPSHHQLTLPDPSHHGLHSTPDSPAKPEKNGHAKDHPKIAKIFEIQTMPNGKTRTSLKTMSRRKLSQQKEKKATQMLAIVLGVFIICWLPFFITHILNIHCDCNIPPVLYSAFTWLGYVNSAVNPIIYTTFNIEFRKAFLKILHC

Sequence of Gamma-aminobutyric acid receptor subunit alpha-1 (Rattus norvegicus) (P62813 whole entry): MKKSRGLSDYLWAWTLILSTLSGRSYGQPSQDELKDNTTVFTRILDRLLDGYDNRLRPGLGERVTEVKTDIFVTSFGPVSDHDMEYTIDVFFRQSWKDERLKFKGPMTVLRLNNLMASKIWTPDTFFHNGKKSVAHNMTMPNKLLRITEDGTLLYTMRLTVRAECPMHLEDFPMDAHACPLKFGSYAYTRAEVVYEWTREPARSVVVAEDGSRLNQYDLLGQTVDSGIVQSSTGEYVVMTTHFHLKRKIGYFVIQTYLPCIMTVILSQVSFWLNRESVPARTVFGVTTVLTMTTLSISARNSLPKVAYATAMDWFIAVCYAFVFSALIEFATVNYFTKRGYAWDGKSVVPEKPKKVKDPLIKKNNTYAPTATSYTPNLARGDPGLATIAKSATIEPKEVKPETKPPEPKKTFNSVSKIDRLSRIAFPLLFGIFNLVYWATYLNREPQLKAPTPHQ

Cc1cc(OCCC(C)(C)O)cc(C)c1-c1ccc(F)c2c1CC[C@H]2Oc1ccc2c(c1)OC[C@H]2CC(=O)O
inactive: residual activity [1] 87% | residual activity [2] 63% | residual activity [3] 109% | residual activity [4] 84% | residual activity [5] 83% | residual activity [6] 91% | residual activity [7] 76% | residual activity [8] 95%

COCCCS(=O)(=O)c1cc(C)c(-c2ccc(F)c3c2CC[C@H]3Oc2ccc3c(c2)OC[C@H]3CC(=O)O)c(C)c1
inactive: residual activity [9] 102% | residual activity [10] 103% | residual activity [11] 90% | residual activity [12] 112% | inhibition [13] 12.9% | residual activity [14] 83% | residual activity [15] 106% | inhibition [16] -8.43% | residual activity [17] 87% | residual activity [18] 102% | residual activity [19] 109% | residual activity [20] 88%
